In patent EP0017484A1, “2-Imidazoline derivatives, process for the preparation thereof and the pharmaceutical composition of the same” (FUJISAWA PHARMACEUTICAL CO., LTD., priority 1979, dated 1980):

How the values were obtained:
[1] = tested on: male ddy strain mice; assay: Analgesic activity: acetic acid writhing syndrome; assay type: in vivo; details: Mus musculus, po; orally 60 minutes before i.p. 0.6% acetic acid; writhing observed from 3 to 13 minutes; Litchfield-Wilcoxon method
Experimental: Ten male ddy strain mice were used for each dose. To estimate the frequency of writhing syndrome, the animals were observed from 3 to 13 minutes after an intraperitoneal injection of 0.2 ml/10 g of 0.6% acetic acid. The drugs were given orally 60 minutes before acetic acid. The frequency of writhing syndrome in the treated animals was compared with that in the non-treated control animals.
The ED50 value was calculated according to Litchfield-Wilcoxon method.

[2] = tested on: Sprague-Dawley rats; assay: Anti-inflammatory activity: carrageenin hind paw edema; assay type: in vivo; details: 100 mg/kg orally 60 minutes before carrageenin (1.5%, 0.1 ml); paw weight after 3 hours versus control animals
Experimental: Ten Sprague-Dawley rats were used per group. The right hind paw of the rat was injected subcutaneously under the plantar surface with 0.1 ml of carrageenin (1.5%). After 3 hours, the animals were sacrificed. The normal and edematous hind paws were cut off at the tibio-dorsal joint and weighed. The difference in the weight of edematous paw and that of normal paw was a measure of the edema. The test compound (100 mg/kg) was administered orally 60 minutes before the irritating agent. Paw swelling of treated animals was compared with that of control animals.

SMILES | ED50 [1] | Inhibitory effect [2]
COc1cc(Oc2ccccc2NC2=NCCN2)cc(OC)c1OC [2-[2-(3,4,5-Trimethoxyphenoxy)phenyl]amino-2-imidazoline] | 50.1 mg/kg | –
Cc1ccc(NC2=NCCN2)c(Oc2ccccc2)c1 [2-(2-Phenoxy-4-methylphenyl)amino-2-imidazoline] | – | 48.4%
